Results reported in ChEMBL document CHEMBL1201862, “PubChem BioAssay data set” (2004).
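All cell lines were grown in 96-well plates and treated with compound for 48 hours. GI50 marks 50% less growth.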 Activity calls are given as the source filed them. Cut-off read from the data, not from the text of the source: active = GI50 up to about 1.1 µM and inactive = higher.

Key:
Test in all cases: inhibition of tumour cell growth, NCI panel, 48 h
786-0 = test system: 786-0
A498 = test system: A498
A549 = test system: A549
ACHN = test system: ACHN
BT-549 = test system: BT-549
CAKI-1 = test system: CAKI-1
CCRF-CEM = test system: CCRF-CEM
COLO 205 = test system: COLO 205
DLD-1 = test system: DLD-1
DMS-114 = test system: DMS-114
DMS-273 = test system: DMS-273
DU-145 = test system: DU-145
EKVX = test system: EKVX
HCC 2998 = test system: HCC 2998
HCT-116 = test system: HCT-116
HCT-15 = test system: HCT-15
HL-60 = test system: HL-60
HOP-18 = test system: HOP-18
HOP-62 = test system: HOP-62
HOP-92 = test system: HOP-92
HT-29 = test system: HT-29
Hs-578T = test system: Hs-578T
IGROV-1 = test system: IGROV-1
K562 = test system: K562
KM-20L2 = test system: KM-20L2
KM12 = test system: KM12
LOX IMVI = test system: LOX IMVI
M14 = test system: M14
M19-MEL = test system: M19-MEL
MCF7 = test system: MCF7
MDA-MB-231 = test system: MDA-MB-231
MDA-MB-435 = test system: MDA-MB-435
MDA-N = test system: MDA-N
MOLT-4 = test system: MOLT-4
Malme-3M = test system: Malme-3M
NCI-H226 = test system: NCI-H226
NCI-H23 = test system: NCI-H23
NCI-H460 = test system: NCI-H460
NCI-H522 = test system: NCI-H522
NCI/ADR-RES = test system: NCI/ADR-RES
OVCAR-3 = test system: OVCAR-3
OVCAR-4 = test system: OVCAR-4
OVCAR-5 = test system: OVCAR-5
OVCAR-8 = test system: OVCAR-8
PC-3 = test system: PC-3
RPMI-8226 = test system: RPMI-8226
RXF 393 = test system: RXF 393
SF-268 = test system: SF-268
SF-295 = test system: SF-295
SF-539 = test system: SF-539
SK-MEL-28 = test system: SK-MEL-28
SK-MEL-2 = test system: SK-MEL-2
SK-MEL-5 = test system: SK-MEL-5
SK-OV-3 = test system: SK-OV-3
SN12C = test system: SN12C
SNB-19 = test system: SNB-19
SNB-75 = test system: SNB-75
SNB-78 = test system: SNB-78
SR = test system: SR
SW-620 = test system: SW-620
T47D = test system: T47D
TK-10 = test system: TK-10
U-251 = test system: U-251
UACC-257 = test system: UACC-257
UACC-62 = test system: UACC-62
UO-31 = test system: UO-31
XF498 = test system: XF498

## COc1cc2c(c(OC)c1OC)-c1ccc(SC)c(=O)cc1C(NC=O)CC2 (configuration not stated)
786-0
  GI50: < 0.01 µM (active)
A498
  GI50: < 0.01 µM (active)
A549
  GI50: < 0.01 µM (active)
ACHN
  GI50: < 0.01 µM (active)
BT-549
  GI50: 0.239 µM (active)
CAKI-1
  GI50: 0.0183 µM (active)
CCRF-CEM
  GI50: 0.015 µM (active)
COLO 205
  GI50: < 0.01 µM (active)
DLD-1
  GI50: < 0.01 µM (active)
DMS-114
  GI50: < 0.01 µM (active)
DMS-273
  GI50: < 0.01 µM (active)
DU-145
  GI50: < 0.01 µM (active)
EKVX
  GI50: 3.6 µM (inactive)
HCC 2998
  GI50: < 0.01 µM (active)
HCT-116
  GI50: < 0.01 µM (active)
HCT-15
  GI50: < 0.01 µM
HL-60
  GI50: < 0.01 µM (active)
HOP-18
  GI50: > 45.7 µM (inactive)
HOP-62
  GI50: < 0.01 µM (active)
HOP-92
  GI50: < 0.01 µM (active)
HT-29
  GI50: < 0.01 µM (active)
Hs-578T
  GI50: < 0.01 µM (active)
IGROV-1
  GI50: < 0.01 µM (active)
K562
  GI50: < 0.01 µM (active)
KM-20L2
  GI50: < 0.01 µM (active)
KM12
  GI50: < 0.01 µM (active)
LOX IMVI
  GI50: < 0.01 µM (active)
M14
  GI50: < 0.01 µM (active)
M19-MEL
  GI50: < 0.01 µM (active)
MCF7
  GI50: < 0.0107 µM (active)
MDA-MB-231
  GI50: < 0.01 µM (active)
MDA-MB-435
  GI50: < 0.01 µM (active)
MDA-N
  GI50: < 0.01 µM (active)
MOLT-4
  GI50: < 0.01 µM (active)
Malme-3M
  GI50: < 0.01 µM (active)
NCI-H226
  GI50: 0.0465 µM (active)
NCI-H23
  GI50: < 0.01 µM (active)
NCI-H460
  GI50: < 0.01 µM (active)
NCI-H522
  GI50: < 0.01 µM (active)
NCI/ADR-RES
  GI50: 0.0393 µM (active)
OVCAR-3
  GI50: < 0.01 µM (active)
OVCAR-4
  GI50: 66.4 µM (inactive)
OVCAR-5
  GI50: 0.164 µM (active)
OVCAR-8
  GI50: < 0.01 µM (active)
PC-3
  GI50: < 0.01 µM (active)
RPMI-8226
  GI50: < 0.01 µM (active)
RXF 393
  GI50: 0.0463 µM (active)
SF-268
  GI50: < 0.01 µM (active)
SF-295
  GI50: < 0.01 µM (active)
SF-539
  GI50: < 0.01 µM (active)
SK-MEL-28
  GI50: 0.462 µM (active)
SK-MEL-2
  GI50: < 0.01 µM (active)
SK-MEL-5
  GI50: < 0.01 µM (active)
SK-OV-3
  GI50: 0.0371 µM (active)
SN12C
  GI50: < 0.01 µM (active)
SNB-19
  GI50: 0.0344 µM (active)
SNB-75
  GI50: < 0.0442 µM (active)
SNB-78
  GI50: < 0.01 µM (active)
SR
  GI50: < 0.01 µM (active)
SW-620
  GI50: < 0.0275 µM (active)
T47D
  GI50: 54.1 µM (inactive)
TK-10
  GI50: 2.02 µM (inactive)
U-251
  GI50: < 0.01 µM (active)
UACC-257
  GI50: 0.249 µM (active)
UACC-62
  GI50: < 0.01 µM (active)
UO-31
  GI50: 0.0188 µM (active)
XF498
  GI50: < 0.01 µM (active)

## NC(CN(O)N=O)C(=O)O (configuration not stated)
A549
  GI50: 0.202 µM (active)
ACHN
  GI50: 1.85 µM (inactive)
DLD-1
  GI50: 1.04 µM (active)
DMS-114
  GI50: 0.309 µM (active)
DMS-273
  GI50: 0.817 µM (active)
DU-145
  GI50: 135 µM (inactive)
HL-60
  GI50: 9.4 µM (inactive)
HOP-18
  GI50: 331 µM (inactive)
HT-29
  GI50: 9.23 µM (inactive)
KM-20L2
  GI50: 19 µM (inactive)
KM12
  GI50: 0.472 µM (active)
LOX IMVI
  GI50: 0.267 µM (active)
M19-MEL
  GI50: 14.1 µM (inactive)
MDA-MB-231
  GI50: 55.7 µM (inactive)
MOLT-4
  GI50: 20.1 µM (inactive)
Malme-3M
  GI50: 54.5 µM (inactive)
NCI/ADR-RES
  GI50: 17.1 µM (inactive)
OVCAR-5
  GI50: 5.22 µM (inactive)
OVCAR-8
  GI50: 12.2 µM (inactive)
SF-295
  GI50: 5.01 µM (inactive)
SF-539
  GI50: 8.57 µM (inactive)
SK-MEL-2
  GI50: 95.9 µM (inactive)
SNB-78
  GI50: 21.8 µM (inactive)
T47D
  GI50: 157 µM (inactive)
XF498
  GI50: 5.71 µM (inactive)
